# Experimental data: patent publication US20040225172A1, “Use of ionic liquids to separate olefins, diolefins and aromatics” (NOVA Chemicals (International) S.A., priority 2002, published 2004)
# Where two headings read alike, the source gives them in different places.
# Assays:
# [1] = ambient temperature; for Propane absorbed (mol C3H8/L absorbent) / Propylene absorbed (mol C3H6/L absorbent): equilibrium
# Method: The testing apparatus consists of two sample cylinders (one 1000 cc cylinder and one 150 cc cylinder) connected by ⅛-inch tubing with valves allowing for isolation of each cylinder. A digital pressure gauge indicates the larger cylinder pressure and the pressure of the system when the cylinders are not isolated.
# To measure absorption, 50 mL of bmim^+ BF4^− absorbent was loaded into the smaller cylinder and the larger cylinder was pressurized with the hydrocarbon gas. The amount of gas absorbed by the sample of bmim^+BF4^− is proportional to the pressure drop that occurs when the sample is exposed to the test gas, and can be calculated knowing the internal volume of the closed system.
# The sample was then exposed to the gas in the large 1000 cc cylinder as the valve separating the cylinders was opened. The initial pressure drop was recorded. The sample was stirred via magnetic stirrer. When the system came to equilibrium (no pressure changed for over 1 hour) the final absorption pressure was recorded and the cylinders were once again separated. This procedure could be repeated for different absorption pressures. Experiments were conducted at ambient temperature.
# Between experimental runs, the absorbent was degassed by bubbling a nitrogen entrainment gas through the absorbent for 2 to 3 hours.
# [2] = C5 hydrocarbon solubility in ionic liquid (volume change of hydrocarbon phase)
# Method: The locations of all meniscuses were then recorded. […] The testing was conducted at ambient temperature.
# [3] = Cyclo-C8 hydrocarbon solubility in ionic liquids
# [4] = in bmim^+ BF4^− ionic liquid, ambient temperature
smiles,measurement,setting,value
"CCCCn1cc[n+](C)c1.F[B-](F)(F)F [bmim^+ BF4^−, 1-butyl-3-methylimidazolium tetrafluoroborate]",C3H6:C3H8 Selectivity,[1]; 50.0 psig,3.55
same,Propane absorbed (mol C3H8/L absorbent),[1]; 50.0 psig,0.011 mol C3H8/L absorbent
same,Propylene absorbed (mol C3H6/L absorbent),[1]; 50.0 psig,0.039 mol C3H6/L absorbent
same,C3H6:C3H8 Selectivity,[1]; 72.6 psig,9.92
same,Propane absorbed (mol C3H8/L absorbent),[1]; 72.6 psig,0.012 mol C3H8/L absorbent
same,Propylene absorbed (mol C3H6/L absorbent),[1]; 72.6 psig,0.119 mol C3H6/L absorbent
"CC=C(C)C [2-Methyl-2-Butene, 2-methyl-2-butene]",Selectivity over Isopentane,[2]; [4],10.6
same,Solubility (mol C5/L ionic liquid),[2]; [4],0.360 mol C5/L ionic liquid
"CCC(C)C [Isopentane, isopentane]",Solubility (mol C5/L ionic liquid),[2],0.034 mol C5/L ionic liquid
"CCc1ccccc1 [Ethylbenzene, ethylbenzene]",Solubility in mbpy^+ BF4^− (mol C8/L ionic liquid),[3],0.551 mol C8/L ionic liquid
"C=CC(=C)C [Isoprene, isoprene]",Selectivity over Isopentane,[2]; [4],18.0
same,Solubility (mol C5/L ionic liquid),[2]; [4],0.611 mol C5/L ionic liquid
